Laboratory results as given in the NIST ThermoML archive (doi:10.1016/j.jct.2013.12.009).

Tests used:
[1] = xn = mol fraction of the nth substance listed; settings: for surface tension liquid-gas: Pendant drop shape; for viscosity / mass density: 101 kPa, Liquid; for viscosity: Concentric cylinders viscometry; for mass density: Vibrating tube method
[2] = for surface tension liquid-gas: Pendant drop shape; for mass density: 101 kPa, Liquid, Vibrating tube method

CCCC[N+]1(C)CCCC1.O=S(=O)([N-]S(=O)(=O)C(F)(F)F)C(F)(F)F + CO
[1]
Settings	mass density, 288.15 K [kg/m3]	mass density, 298.15 K [kg/m3]	mass density, 308.15 K [kg/m3]	surface tension liquid-gas, 288.15 K [mN/m]	surface tension liquid-gas, 298.15 K [mN/m]	surface tension liquid-gas, 308.15 K [mN/m]	viscosity, 288.15 K [mPa·s]	viscosity, 298.15 K [mPa·s]	viscosity, 308.15 K [mPa·s]
x1 = 0.0495	970.4	960.7	951.1	24.36	23.54	22.73	–	–	–
x1 = 0.1886	1186.4	1176.8	1167.3	26.9	26.36	25.86	–	–	–
x1 = 0.2054	–	–	–	–	–	–	5.04	3.91	3.11
x1 = 0.3407	1281.7	1272.3	1263	29.25	28.95	28.63	–	–	–
x1 = 0.4365	–	–	–	–	–	–	17.5	12.51	9.35
x1 = 0.4932	1332.2	1323	1313.8	31.03	30.85	30.54	–	–	–
x1 = 0.5394	–	–	–	–	–	–	26.71	18.54	13.51
x1 = 0.6076	1356.2	1347	1338	32.08	31.67	31.36	–	–	–
x1 = 0.637	1361.2	1352.1	1343	32.25	31.94	31.65	–	–	–
x1 = 0.7067	–	–	–	–	–	–	49.43	32.82	23.02
x1 = 0.801	1384	1375	1366.1	33.23	32.77	32.33	–	–	–
x1 = 0.8363	1388.1	1379.1	1370.3	–	–	–	–	–	–
x1 = 0.9135	1395.6	1386.7	1377.9	33.57	33.1	32.65	–	–	–
x1 = 1	1403.4	1394.5	1385.7	33.71	33.22	32.82	–	–	–

CC#N [acetonitrile]
[2]
Settings	mass density [kg/m3]	surface tension liquid-gas [mN/m]
288.15 K	787.2	29.53
298.15 K	776.53	28.34
308.15 K	765.7	27.15

CC#N [acetonitrile] + CCCC[N+]1(C)CCCC1.O=S(=O)([N-]S(=O)(=O)C(F)(F)F)C(F)(F)F
[1], x2 = 0
Settings	mass density [kg/m3]	surface tension liquid-gas [mN/m]
288.15 K	787.2	29.53
298.15 K	776.5	28.34
308.15 K	765.7	27.15

CO [methanol]
[2]
Settings	mass density [kg/m3]	surface tension liquid-gas [mN/m]
288.15 K	795.8	22.88
298.15 K	786.45	22
308.15 K	777	21.01

CO [methanol] + CCCC[N+]1(C)CCCC1.O=S(=O)([N-]S(=O)(=O)C(F)(F)F)C(F)(F)F
[1], x2 = 0
Settings	mass density [kg/m3]	surface tension liquid-gas [mN/m]
288.15 K	795.8	22.88
298.15 K	786.4	22
308.15 K	777	21.01
